pIC50, pKd: −log10 of the molar value.
Legend:
[1] = molecular target: SOS1:KRAS (G12C) interaction (Homo sapiens (Human), UniProt Q07889); assay: SOS1 KRas(G12C) FRET Assay; assay type: binding; details: 0.5 nM His10-SOS1 (res. 564-1049), 2.5 nM GST-KRAS G12C (res. 1-169), 2 hrs at RT
Procedure, shortened: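 GST-KRAS G12C (res. 1-169) at 2.5 nM and His10-SOS1 (res. 564-1049) at 0.5 nM, final, in PBS with 0.1% BSA, 5 mM MgCl2, 100 mM KF, 5 mM DTT and 0.5% DMSO. After 2 h at RT, FRET read at 665/615 nm and normalized to DMSO and no-SOS1 controls. IC50 by non-linear regression.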

human SOS1 = human SOS1 (Homo sapiens (Human), UniProt Q07889); assay: Surface Plasmon Resonance (SPR) SOS1 Binding Assay; details: biotinylated SOS1 (res. 564-1049), Biacore 8K, 25° C., kinetic or steady state fit, 1:1 binding; read-out: hSOS1 KD
human SOS1, sequence (Q07889 564-1049): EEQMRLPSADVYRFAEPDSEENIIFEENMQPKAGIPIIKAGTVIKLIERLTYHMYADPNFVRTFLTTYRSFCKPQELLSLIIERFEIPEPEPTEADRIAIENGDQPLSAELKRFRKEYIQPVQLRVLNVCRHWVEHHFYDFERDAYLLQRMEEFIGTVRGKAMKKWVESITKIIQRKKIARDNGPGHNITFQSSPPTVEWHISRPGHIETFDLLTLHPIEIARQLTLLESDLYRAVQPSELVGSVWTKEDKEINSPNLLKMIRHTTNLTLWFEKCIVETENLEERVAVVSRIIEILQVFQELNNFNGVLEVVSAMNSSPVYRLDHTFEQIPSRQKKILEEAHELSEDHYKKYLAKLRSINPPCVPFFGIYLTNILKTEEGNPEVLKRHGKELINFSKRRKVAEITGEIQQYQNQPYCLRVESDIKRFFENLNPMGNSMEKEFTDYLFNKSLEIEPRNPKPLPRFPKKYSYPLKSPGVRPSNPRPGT
Procedure, shortened: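 Biotinylated Avi-tagged human SOS1 (res. 564-1049) captured on streptavidin chip (~3,000 RU); compounds injected 60 s, dissociation 600 s, at 25° C in Tris pH 8.0 buffer with 5% DMSO. Reference- and blank-subtracted; KD from kinetic or steady-state 1:1 binding fit.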

SOS1:KRAS (G12C) interaction, sequence (Q07889 564-1049, stated change not applied): as the sequence (Q07889 564-1049) above

SMILES	pIC50 [1]	pKd (human SOS1)
C[C@@H](NC(=O)c1cn([C@H]2CC2(C)C)c(=O)cc1N[C@H]1[C@@H]2CN(C)C[C@@H]21)c1cccc(C(F)F)c1F [Example 95, N-((R)-1-(3-(difluoromethyl)-2-fluorophenyl)ethyl)-1-((S)-2,2-dimethylcyclopropyl)-4-(((lR,5S,6s)-3-methyl-3-azabicyclo[3.1.0]hexan-6-yl)amino)-6-oxo-1,6-dihydropyridine-3-carboxamide]	7.67	7.92
C[C@@H](NC(=O)c1cn([C@H]2C[C@@H](F)C2)c(=O)cc1N[C@H]1[C@@H]2CN(C)C[C@@H]21)c1cccc(C(F)F)c1F [Example 96, N-((R)-1-(3-(difluoromethyl)-2-fluorophenyl)ethyl)-1-((1s,3S)-3-fluorocyclobutyl)-4-(((1R,5S,6s)-3-methyl-3-azabicyclo[3.1.0]hexan-6-yl)amino)-6-oxo-1,6-dihydropyridine-3-carboxamide]	7.80	8.05
C[C@@H](NC(=O)c1cn([C@H]2C[C@H](F)C2)c(=O)cc1N[C@H]1[C@@H]2CN(C)C[C@@H]21)c1cccc(C(F)F)c1F [Example 97, N-((R)-1-(3-(difluoromethyl)-2-fluorophenyl)ethyl)-1-((1r,3R)-3-fluorocyclobutyl)-4-(((1R,5S,6s)-3-methyl-3-azabicyclo[3.1.0]hexan-6-yl)amino)-6-oxo-1,6-dihydropyridine-3-carboxamide]	7.78	8.15
C[C@@H](NC(=O)c1cn(C23CC(C)(C2)C3)c(=O)cc1N[C@H]1[C@@H]2CN(C)C[C@@H]21)c1cccc(C(F)F)c1F [Example 98, N-((R)-1-(3-(difluoromethyl)-2-fluorophenyl)ethyl)-4-(((1R,5S,6s)-3-methyl-3-azabicyclo[3.1.0]hexan-6-yl)amino)-1-(3-methylbicyclo[1.1.1]pentan-1-yl)-6-oxo-1,6-dihydropyridine-3-carboxamide]	7.87	8.22
CC(C)n1cc(C(=O)N[C@H](C)c2cccc(C(F)F)c2F)c(N[C@H]2[C@@H]3CN(C)C[C@@H]32)cc1=O [Example 99, N-((R)-1-(3-(difluoromethyl)-2-fluorophenyl)ethyl)-1-isopropyl-4-(((1R,5S,6s)-3-methyl-3-azabicyclo[3.1.0]hexan-6-yl)amino)-6-oxo-1,6-dihydropyridine-3-carboxamide]	7.19	7.52
C[C@@H](NC(=O)c1cn(C2CC(F)(F)C2)c(=O)cc1N[C@H]1[C@@H]2CN(C)C[C@@H]21)c1cccc(C(F)F)c1F [Example 100, 1-(3,3-difluorocyclobutyl)-N-((R)-1-(3-(difluoromethyl)-2-fluorophenyl)ethyl)-4-(((1R,5S,6s)-3-methyl-3-azabicyclo[3.1.0]hexan-6-yl)amino)-6-oxo-1,6-dihydropyridine-3-carboxamide]	7.74	8.00
C[C@@H](NC(=O)c1cn(C2CC2)c(=O)cc1N[C@H]1[C@@H]2CN(C)C[C@@H]21)c1cccc(C(F)F)c1F [Example 101, 1-cyclopropyl-N-((R)-1-(3-(difluoromethyl)-2-fluorophenyl)ethyl)-4-(((1R,5S,6s)-3-methyl-3-azabicyclo[3.1.0]hexan-6-yl)amino)-6-oxo-1,6-dihydropyridine-3-carboxamide]	7.62	7.96
C[C@@H](NC(=O)c1cn(C23CC(F)(C2)C3)c(=O)cc1N[C@H]1[C@@H]2CN(C)C[C@@H]21)c1cccc(C(F)F)c1F [Example 102, N-((R)-1-(3-(difluoromethyl)-2-fluorophenyl)ethyl)-1-(3-fluorobicyclo[1.1.1]pentan-1-yl)-4-(((1R,5S,6s)-3-methyl-3-azabicyclo[3.1.0]hexan-6-yl)amino)-6-oxo-1,6-dihydropyridine-3-carboxamide]	7.92	8.10
C[C@@H](NC(=O)c1cn(C23CC(C(F)F)(C2)C3)c(=O)cc1N[C@H]1[C@@H]2CN(C)C[C@@H]21)c1cccc(C(F)F)c1F [Example 105, N-((R)-1-(3-(difluoromethyl)-2-fluorophenyl)ethyl)-1-(3-(difluoromethyl)bicyclo [1. 1.1]pentan-1-yl)-4-(((1R,5S,6s)-3-methyl-3-azabicyclo[3.1.0]hexan-6-yl)amino)-6-oxo-1,6-dihydropyridine-3-carboxamide]	7.89	8.05
C[C@@H](NC(=O)c1cn(C23CC(C(F)(F)F)(C2)C3)c(=O)cc1N[C@H]1[C@@H]2CN(C)C[C@@H]21)c1cccc(C(F)F)c1F [Example 106, N-((R)-1-(3-(difluoromethyl)-2-fluorophenyl)ethyl)-4-(((1R,5S,6s)-3-methyl-3-azabicyclo[3.1.0]hexan-6-yl)amino)-6-oxo-1-(3-(trifluoromethyl)bicyclo[1. 1.1]pentan-1-yl)-1,6-dihydropyridine-3-carboxamide]	7.77	7.72
C[C@@H](NC(=O)c1cn(C2CC3(CC3)C2)c(=O)cc1N[C@H]1[C@@H]2CN(C)C[C@@H]21)c1cccc(C(F)F)c1F [Example 107, N-((R)-1-(3-(difluoromethyl)-2-fluorophenyl)ethyl)-4-(((1R,5S,6s)-3-methyl-3-azabicyclo[3.1.0]hexan-6-yl)amino)-6-oxo-1-(spiro[2.3]hexan-5-yl)-1,6-dihydropyridine-3-carboxamide]	8.08	8.52
C[C@@H](NC(=O)c1cn(C(C)(C)C2CC2)c(=O)cc1N[C@H]1[C@@H]2CN(C)C[C@@H]21)c1cccc(C(F)F)c1F [Example 108, 1-(2-cyclopropylpropan-2-yl)-N-((R)-1-(3-(difluoromethyl)-2-fluorophenyl)ethyl)-4-(((1R,5S,6s)-3-methyl-3-azabicyclo[3.1.0]hexan-6-yl)amino)-6-oxo-1,6-dihydropyridine-3-carboxamide]	6.83	6.46
C[C@@H](NC(=O)c1cn([C@H]2C[C@@H]2C(F)F)c(=O)cc1N[C@H]1[C@@H]2CN(C)C[C@@H]21)c1cccc(C(F)F)c1F [Example 113, N-((R)-1-(3-(difluoromethyl)-2-fluorophenyl)ethyl)-1-((1S,2S)-2-(difluoromethyl)cyclopropyl)-4-(((1R,5S,6s)-3-methyl-3-azabicyclo[3.1.0]hexan-6-yl)amino)-6-oxo-1,6-dihydropyridine-3-carboxamide]	7.98	8.22
C[C@@H](NC(=O)c1cn([C@@H]2C[C@H]2C(F)F)c(=O)cc1N[C@H]1[C@@H]2CN(C)C[C@@H]21)c1cccc(C(F)F)c1F [Example 114, N-((R)-1-(3-(difluoromethyl)-2-fluorophenyl)ethyl)-1-((1R,2R)-2-(difluoromethyl)cyclopropyl)-4-(((1R,5S,6s)-3-methyl-3-azabicyclo[3.1.0]hexan-6-yl)amino)-6-oxo-1,6-dihydropyridine-3-carboxamide]	7.68	7.89
C[C@@H](NC(=O)c1cn(C2(C(F)(F)F)CC2)c(=O)cc1N[C@H]1[C@@H]2CN(C)C[C@@H]21)c1cccc(C(F)F)c1F [Example 119, N-((R)-1-(3-(difluoromethyl)-2-fluorophenyl)ethyl)-4-(((1R,5S,6s)-3-methyl-3-azabicyclo[3.1.0]hexan-6-yl)amino)-6-oxo-1-(1-(trifluoromethyl)cyclopropyl)-1,6-dihydropyridine-3-carboxamide]	7.44	7.64
C[C@@H](NC(=O)c1cn(C2(C(F)F)CC2)c(=O)cc1N[C@H]1[C@@H]2CN(C)C[C@@H]21)c1cccc(C(C)(F)F)c1F [Example 121, N-((R)-1-(3-(1,1-difluoroethyl)-2-fluorophenyl)ethyl)-1-(1-(difluoromethyl)cyclopropyl)-4-(((1R,5S,6s)-3-methyl-3-azabicyclo[3.1.0]hexan-6-yl)amino)-6-oxo-1,6-dihydropyridine-3-carboxamide]	7.54	7.68
C[C@@H](NC(=O)c1cn(C2CCOC(C)(C)C2)c(=O)cc1N[C@H]1[C@@H]2CN(C)C[C@@H]21)c1cccc(C(F)F)c1F (stereo partly drawn) [Example 122, N-((R)-1-(3-(difluoromethyl)-2-fluorophenyl)ethyl)-1-(2,2-dimethyltetrahydro-2H-pyran-4-yl)-4-(((1R,5S,6s)-3-methyl-3-azabicyclo[3.1.0]hexan-6-yl)amino)-6-oxo-1,6-dihydropyridine-3-carboxamide]	7.76	8.05
C[C@@H](NC(=O)c1cn(C2CCC(F)(F)CC2)c(=O)cc1N[C@H]1[C@@H]2CN(C)C[C@@H]21)c1cccc(C(F)F)c1F [Example 123, 1-(4,4-difluorocyclohexyl)-N-((R)-1-(3-(difluoromethyl)-2-fluorophenyl)ethyl)-4-(((1R,5S,6s)-3-methyl-3-azabicyclo[3.1.0]hexan-6-yl)amino)-6-oxo-1,6-dihydropyridine-3-carboxamide]	7.64	7.82
C[C@@H](NC(=O)c1cn(C2(C(F)F)CC2)c(=O)cc1N[C@H]1C[C@@H]2CN(C)C[C@@H]2C1)c1cccc(C(F)F)c1F [Example 125, N-((R)-1-(3-(difluoromethyl)-2-fluorophenyl)ethyl)-1-(1-(difluoromethyl)cyclopropyl)-4-(((3aR,5s,6aS)-2-methyloctahydrocyclopenta[c]pyrrol-5-yl)amino)-6-oxo-1,6-dihydropyridine-3-carboxamide]	7.56	7.89

— patent publication US20230348424A1, “HETEROCYCLIC COMPOUNDS AND METHODS OF USE” (Schrödinger, Inc., priority 2022, published 2023)
